Measurements as given in ChEMBL document CHEMBL5634152, “The discovery of water-soluble indazole derivatives as potent microtubule polymerization inhibitors” (Eur J Med Chem, 2023).
Activity calls are given as the source filed them. No cut-off for these calls is given here.

Legend:
A549 = assay: cells; details: Homo sapiens
Description: Antiproliferative activity against human A549 cells assessed as cell growth inhibition incubated for72 hrs by MTT assay

Huh-7 = assay: cells; details: Homo sapiens
Description: Antiproliferative activity against human Huh-7 cells assessed as cell growth inhibition incubated for72 hrs by MTT assay

T-24 = assay: cells; details: Homo sapiens
Description: Antiproliferative activity against human T-24 cells assessed as cell growth inhibition incubated for72 hrs by MTT assay

Tubulin (Homo sapiens) = Tubulin (Homo sapiens) (UniProt P68371+Q9H4B7+P0DPH7+P68366+Q13509+Q71U36+P04350+Q3ZCM7+P07437+P68363+Q9BQE3+Q6PEY2+Q13885+Q9BVA1+Q9BUF5); assay: Binding affinity to tubulin polymerization at colchicine-binding site in human A549 cells assessed as N,N'-ethylene- bis(iodoacetamide)/beta-tubulin adduct formation at 5 to 25 uM incubated for 2 hrs by chemiluminescence based assay; format: cell-based; details: dose 5-25 µM

Compound | IC50 (A549) | IC50 (Huh-7) | IC50 (T-24) | Activity (Tubulin (Homo sapiens))
COc1ccc(-n2ncc3ccc(-c4cc(OC)c(OC)c(OC)c4)cc32)cc1 | > 25 µM | > 25 µM | > 25 µM | –
COc1cc(-n2ncc3ccc(-c4ccc5[nH]ccc5c4)cc32)cc(OC)c1OC | 0.12 µM | 0.14 µM | 0.17 µM | –
COc1cc2c(c(OC)c1OC)-c1ccc(OC)c(=O)cc1[C@@H](NC(C)=O)CC2 [COLCHICINE] | – | 0.024 µM | 0.046 µM | –
COc1cc(-n2nc(C)c3ccc(-c4ccc(C)cc4)cc32)cc(OC)c1OC | 0.19 µM | 0.12 µM | 0.14 µM | –
COc1cc(-n2ncc3ccc(-c4ccc5c(ccn5C)c4)cc32)cc(OC)c1OC | 0.063 µM | 0.073 µM | 0.12 µM | –
COc1ccc(-n2nc(C)c3ccc(-c4cc(OC)c(OC)c(OC)c4)cc32)cn1 | > 25 µM | > 25 µM | > 25 µM | –
CC[C@]1(O)C[C@H]2CN(CCc3c([nH]c4ccccc34)[C@@](C(=O)OC)(c3cc4c(cc3OC)N(C=O)[C@H]3[C@@](O)(C(=O)OC)[C@H](OC(C)=O)[C@]5(CC)C=CCN6CC[C@]43[C@@H]65)C2)C1 | – | – | – | inactive

The next lines start with the values.

IC50 (A549) | IC50 (Huh-7) | IC50 (T-24) | Activity (Tubulin (Homo sapiens)) | Compound
0.045 µM | 0.051 µM | 0.092 µM | – | COc1cc(-n2ncc3ccc(-c4ccc(C)cc4)cc32)cc(OC)c1OC
0.052 µM | 0.042 µM | 0.08 µM | – | COc1cc(-n2ncc3ccc(-c4ccccc4)cc32)cc(OC)c1OC
15.2 µM | 9.22 µM | 16.4 µM | – | COc1cc(-n2ncc3ccc(-c4ccncc4)cc32)cc(OC)c1OC
1.51 µM | 1.06 µM | 2.23 µM | – | COc1ccc(-c2ccc3c(C)nn(-c4cc(OC)c(OC)c(OC)c4)c3c2)cn1
0.2 µM | 0.15 µM | 0.32 µM | – | COc1cc(-n2ncc3ccc(-c4ccc(Cl)cc4)cc32)cc(OC)c1OC
0.15 µM | 0.33 µM | 0.19 µM | – | COc1ccc(-c2ccc3cnn(-c4cc(OC)c(OC)c(OC)c4)c3c2)cn1
0.09 µM | 0.11 µM | 0.27 µM | – | COc1cc(-n2ncc3ccc(-c4ccc(F)cc4)cc32)cc(OC)c1OC
